Patent US5969115A, “Bisazo dyes and their preparation and use” (Ilford Imaging Switzerland GMBH, priority 1997, dated 1999)

Experiments:
Format in all cases: physicochemical
[1] = Absorption maximum in water; conditions: Table 6
Text: The absorption maxima and the results of the tests (B) to (D) are listed in Table 6 for the dyes of the invention and in Table 7 for the dyes that are state of the art.

[2] = Dye solubility in deionised water; conditions: for Solubility: deionised water, stirred 1 hour at 50° C., cooled to 20° C., Table 5; for solubility compared with previously known dyes 24 and 26: in words
Experimental: The dye was dispersed in deionised water and this dispersion was stirred for 1 hour at 50° C. Then the mixture was cooled down to 20° C., centrifuged and filtered. Dye solubility was calculated a) from visible spectral data of the filtered solution or b) based on the dried filter residue.

[3] = Color co-ordinates (L*a*b*) of printed samples; conditions: for L*a*b*-value: L* / L*a*b*-value: a* / L*a*b*-value: b*: Table 6
Experimental: (§1) The present invention, as far as it relates to inks, is further illustrated by the following examples using dyes according to our invention described in Tables 1 and 2 and dyes representing the state of the art described in Tables 3 and 4. 100 g of each ink were prepared by heating the necessary amount of dye (3-7 g), glycerol (5 g), tetraethylenglycol (1.1 g). and a biocide solution (Promexal X50, available from Zeneca, Manchester, England) (1.2 g) together with water at a temperature of 50° C. under stirring for one hour. The resulting solution was cooled down to 20° C., pH was adjusted to 7.5 and passed through a Millipore® filter of 0.5 μm pore diameter. The dye quantity was adjusted in a way that the density of the printed images was the same for all dyes.
(§2) 30 g of gelatin with a high isoelectric point (type St 70,810, available from Deutsche Gelatinefabriken, Eberbach, Germany) were dissolved in 360 ml of deionised water. 1 g of a surfactant (Olin 10G, available from Olin Corporation, Norwalk, USA) were added to this solution. Immediately before coating 6.6 g of a solution of 2-(4-dimethyl-carbamoyl-pyridino)-ethanesulfonate (3%) were added and pH was adjusted to 6.5. 100 g/m^2 of this solution was then coated onto a resin coated paper support using a bar coater. The recording medium prepared in this way was dried for 12 hours.
(§3) The inks were then jetted onto this recording medium with an HP560 ink jet printer from Hewlett-Packard. The properties of the printed samples were evaluated later on.
L*a*b*-values were measured on printed samples using a Gretag SPM 100 spectrometer, available from Gretag AG, Regensdorf, Switzerland.
Black dyes show a neutral hue if the values of a* and b*out of the L*a*b* color co-ordinates are zero.

[4] = Light fastness of printed samples (density loss after xenon lamp irradiation); conditions: for Density loss in %: xenon lamp, total illumination 20 kJoule/cm^2, Table 6
Experimental: as §1, §2, §3
The printed samples were irradiated in an Atlas Ci35A Weather-O-Meter® with a r 6500 W Xenon lamp until a total illumination of 20 kJoule/cm^2 was reached. The density loss was measured with an X-Rite® densitometer. It is expressed as % loss of initial density.

Compound	HD max in water [1]	Solubility [2]	solubility compared with previously known dyes 24 and 26 [2]	L*a*b*-value: L* [3]	L*a*b*-value: a* [3]	L*a*b*-value: b* [3]	neutral black (color co-ordinates) ([3]; in words)	light fastness ([4]; printed samples, in words)	Density loss in % [4]
O=S(=O)(O)CCNc1ccc2cc(S(=O)(=O)O)c(N=Nc3ccc(N=Nc4ccc(CS(=O)(=O)O)cc4)c4ccc(S(=O)(=O)O)cc34)c(O)c2c1 [Compound 8]	577 nm	> 20 g per 100 ml	considerably higher solubility	17.3	4.0	-6.6	neutral blacks	excellent light fastness	14%
O=C(O)c1cc(N=Nc2ccc(N=Nc3c(S(=O)(=O)O)cc4ccc(NCCS(=O)(=O)O)cc4c3O)c3cc(S(=O)(=O)O)ccc23)cc(C(=O)O)c1 [Compound 16]	580 nm	> 20 g per 100 ml	considerably higher solubility	3.8	3.4	0.5			1%
